Assay [1] has as its system FloA and PBP2a. Nature of the assay: FloA and PBP2a oligomerization by sucrose gradient centrifugation. As to conditions: membrane fraction of ZA-treated versus untreated cells.
Procedure: FloA oligomerization in S. aureus WT and Δcrt mutant and PBP2a oligomerization were analyzed in sucrose gradient assays. S. aureus cultures were harvested and cells crosslinked with 0.5 mM DSP (dithiobis(succinimidyl propionate)) before cell lysis and membrane fraction purification. Purified membrane fractions (200 μg) solubilized with 0.5% DDM were layered on a 5-40% linear sucrose gradient generated by a Biocomp gradient maker, then centrifuged (Beckman; 100,000 g, 16 h, 4° C.). Fractions (1 ml) were collected from the bottom of the gradient and proteins associated with each fraction were precipitated with 10% trichloroacetic acid (TCA). Protein fractions were dried and resuspended in PBS prior to immunoblot analyses.
In assay [2] the test system is FloA membrane foci. Nature of the assay: FloA membrane foci count by fluorescence microscopy. The format is cell-based, Staphylococcus aureus. As to conditions: ZA 50 μM. Here is the method: Cells from liquid cultures were washed in PBS and resuspended in 0.5 ml 4% paraformaldehyde (6 min, room temperature). Samples were washed twice and resuspended in 0.5 ml PBS. Images were acquired on a Leica DMI6000B microscope equipped with a CRT6000 illumination system, with a HCX PL APO oil immersion objective (100×1.47) and a color camera DFC630FX. Leica Application Suite Advanced Fluorescence
Software was used for linear image processing. The YFP signal was detected (excitation filter 489 nm, emission filter 508 nm). Excitation times were 567 msec. Transmitted light images were taken with 55 msec excitation time.

Assay [3] concerns PBP2a. The class given is cell-based. The following applies: ZA-treated MRSA cells; bands at ~80 kDa.
Assay [4] relates to Staphylococcus aureus MRSA strain USA300. The experiment in a line: In vitro MRSA cell growth inhibition (bacterial count CFU/ml), statin or ZA with oxacillin. The following applies: for MRSA growth (CFU/ml) with oxacillin plus compound: combination with the β-lactam antibiotic oxacillin. The class given is cell-based.
Assay [5] deals with S. aureus. The experiment in a line: Growth curves of S. aureus cultures at different ZA concentrations. The class given is cell-based, Staphylococcus aureus. As to conditions: ZA 50 μM; TSB medium, 36 h, 37° C.
Assay [6] concerns MRSA. The class given is cell-based, Staphylococcus aureus. As to conditions: β-lactam antibiotics; treated versus untreated MRSA.
The test system of assay [7] is MRSA ΔfloA mutant. The experiment in a line: β-lactam antibiotic sensitivity of MRSA ΔfloA mutant versus WT. The class given is cell-based, Staphylococcus aureus. The following applies: antibiotic concentrations that typically inhibit MSSA growth.
Assay [8] deals with MRSA ΔfloA mutant. The following applies: mice infected with ΔfloA mutant, 3×10^7 CFU; oxacillin 200 mg/kg/day; three days post-infection.
Procedure: (§1) Female BALB/c mice (8-10 weeks old, 16-19 g weight) were purchased (Charles River Laboratories), Mice were housed in polypropylene cages in standardized lighting conditions and had ad libitum access to food and water.
(§2) The S. aureus strains were cultured on BHI medium (18 h, 37° C.). Cells were collected, washed three times with PBS and diluted to OD600 nm=0.05. Viable cell counts were determined by plating inoculum dilutions on TSB agar plates. For survival experiments, cohorts of 10 mice were infected with 150 μl of S. aureus cultures (3×10^7 cells) via intravenous injection. Each strain was used to infect one mouse cohort. Doses of oxacillin (200 mg/kg) alone or in combination with ZA (50 mg/Kg or 20 mg/Kg) were injected intraperitoneally (i.p.) daily for 1-4 days. […] The first dose was administered 30 min after the bacterial inoculation. Infections were allowed to progress until severe infection signs occurred or to a 3-day endpoint. Mice were sacrificed when they met the following criteria: 1) loss of at least 20% body weight, 2) loss of at least 15% body weight and ruffled fur, 3) loss of at least 10% body weight and hunched posture, or 4) 4 days post-infection.
Assay [9] has as its system MRSA WT strain. The experiment in a line: Murine infection model, survival, WT strain. The following applies: mice infected with WT, 3×10^7 CFU; oxacillin 200 mg/kg/day; three days post-infection.
Procedure: as §1, §2
The subject of assay [10] is ΔPHB flotillin variant. The format is binding, Staphylococcus aureus.
The subject of assay [11] is ΔEA4 flotillin variant. The class given is binding, Staphylococcus aureus.
In assay [12] the target is FloA (WT flotillin) (Staphylococcus aureus, UniProt Q99TS3). The format is binding. The following applies: purified WT FloA; sucrose gradient, FloA immunodetection in lipid fraction.
The target in assay [13] is ΔMAR flotillin variant. The class given is binding, Staphylococcus aureus.
Assay [14] concerns the target ΔEA4 flotillin variant. The class given is binding, Staphylococcus aureus. This is another data set of the same source.
Assay [15] deals with ΔMAR flotillin variant. The class given is binding, Staphylococcus aureus. The source holds these as a separate data set.
Assay [16] deals with ΔPHB flotillin variant. The format is binding, Staphylococcus aureus. The source holds these as a separate data set.

Entries after “also recorded” stand apart in the source; their conditions may differ.

As a reminder, the Kd is the equilibrium constant for the complex coming apart.

FloA (WT flotillin), sequence (Q99TS3 whole entry, looked up): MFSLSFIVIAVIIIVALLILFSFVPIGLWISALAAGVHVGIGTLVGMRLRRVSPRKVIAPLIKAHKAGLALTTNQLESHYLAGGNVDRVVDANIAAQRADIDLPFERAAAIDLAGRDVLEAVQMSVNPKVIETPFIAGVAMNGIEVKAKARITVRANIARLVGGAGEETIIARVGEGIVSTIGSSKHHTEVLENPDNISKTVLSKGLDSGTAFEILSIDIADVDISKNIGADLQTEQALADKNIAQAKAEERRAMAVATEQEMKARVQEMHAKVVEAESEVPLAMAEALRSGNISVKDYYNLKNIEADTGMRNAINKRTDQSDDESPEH

As to `C=C(CC[C@]12O[C@H](C(=O)O)[C@@](O)(C(=O)O)[C@](C(=O)O)(O1)[C@H](OC(=O)/C=C/[C@@H](C)C[C@@H](C)CC)[C@H]2O)[C@@H](OC(C)=O)[C@H](C)Cc1ccccc1` [ZA, Zaragozic acid], the “oligomerization of flotillin and PBP2a (sucrose gradient)” value in assay [1] was “reduced oligomerization of flotillin and PBP2a”. Further, the “number of FloA membrane foci” value in [2] is recorded as “reduced”. Moreover, the “PBP2a oligomerization (BN-PAGE)” value in [3] is listed as “deficient PBP2a oligomerization”. For the same compound, in [4] (MRSA cultures, combination with oxacillin), the “effect of increasing compound concentration on antibiotic effect of oxacillin” value is reported as “potentiated the antibiotic effect of oxacillin”. Further, the “MRSA growth (CFU/ml) with oxacillin plus compound” value in assay [4] is “inhibited”. The “MRSA growth (CFU/ml) in the presence of compound alone” value in assay [4] (without oxacillin) was “unaltered”. Also, the S. aureus growth result in [5] is “no growth defects; also recorded: did not affect”. The “antibiotic sensitivity profile of treated MRSA cultures” value in assay [6] is reported as “resembled those of the ΔfloA mutant”.
Take `CC1(C)S[C@@H]2[C@H](NC(=O)[C@H](N)c3ccccc3)C(=O)N2[C@H]1C(=O)O` [ampicillin]: the “growth / resistance of ΔfloA compared to WT in presence of β-lactam antibiotic” value in assay [7] is “comparable resistance”.
Regarding `CC(C)c1c(C(=O)Nc2ccccc2)c(-c2ccccc2)c(-c2ccc(F)cc2)n1CC[C@@H](O)C[C@@H](O)CC(=O)O` [atorvastatin], in assay [4], the “MRSA growth (CFU/ml) with oxacillin plus compound” value is listed as “did not alter the MRSA antibiotic-resistant phenotype”.
`Cc1onc(-c2c(Cl)cccc2Cl)c1C(=O)N[C@@H]1C(=O)N2[C@@H]1SC(C)(C)[C@@H]2C(=O)O` [dicloxacillin]: the “growth / resistance of ΔfloA compared to WT in presence of β-lactam antibiotic” value in assay [7] is on record as “severe growth inhibition”.
Take `Cc1onc(-c2c(F)cccc2Cl)c1C(=O)N[C@@H]1C(=O)N2[C@@H]1SC(C)(C)[C@@H]2C(=O)O` [flucoxacillin]: the “growth / resistance of ΔfloA compared to WT in presence of β-lactam antibiotic” value in assay [7] is given as “severe growth inhibition”.
The same measure, in the same setting: then `COc1cccc(OC)c1C(=O)N[C@@H]1C(=O)N2[C@@H]1SC(C)(C)[C@@H]2C(=O)O` [methicillin], with “severe growth inhibition”; and `CCOc1ccc2ccccc2c1C(=O)N[C@@H]1C(=O)N2[C@@H]1SC(C)(C)[C@@H]2C(=O)O` [nafcillin], with “severe growth inhibition”.
Turning to `Cc1onc(-c2ccccc2)c1C(=O)N[C@@H]1C(=O)N2[C@@H]1SC(C)(C)[C@@H]2C(=O)O` [oxacillin], the survival rate in assay [8] turned out to be 70%; in assay [9], 10%. Also, the “growth / resistance of ΔfloA compared to WT in presence of β-lactam antibiotic” value in assay [7] was “severe growth inhibition”.
Turning to `CCC(C)CCCCCCCCCCC(=O)OC[C@H]1O[C@@H](OC(=O)/C(C)=C/C=C/C(C)=C/C=C/C(C)=C/C=C/C=C(C)/C=C/C=C(\C)CCC=C(C)C)[C@H](O)[C@@H](O)[C@@H]1O` (stereo partly drawn) [staphyloxanthin], the “lipid-protein interaction in flotation assay” value in assay [10] is “showed no tendency to interact”; in assay [11], “interacted strongly”; in assay [12], “interacted strongly”; in assay [15], “interacted strongly”. For the same compound, the values for the Kd in assay [13], in assay [14] and in [16] were 12 nM, 9.43 nM and 943 nM, respectively.
